Measurements from US20260041093A1, “Ionic Derivatives Of Aromatic Carboxylic Acid For Use As Plant Stimulants, Method For Stimulating Plants And Use Of These Derivatives For Manufacturing Compositions For Stimulating Plants” (FUNDACJA UNIWERSYTETU IM. ADAMA MICKIEWICZA W POZNANIU, priority 2022, published 2026).
Where two headings read alike, the source gives them in different places.

Experiments:
[1] = tested on: powdery mildew fungus; type: in vivo, tomato; settings: 80 mg/L, watered twice; 2 weeks after infection
Protocol: Tomato plants, at the stage of the first pair of developed true leaves, were watered twice with a solution of substance 1-32 at a concentration of 80 mg/L, at a weekly interval. The control was tomato plants watered only with water. […] The suspension was prepared from culture on solid medium. Protection against biotic stress was evaluated by comparing the area of leaves affected by infection.

[2] = tested on: Pseudomonas syringae pv. Tomato (Pst); assay: Protection of tomato against Pseudomonas syringae pv. Tomato by spraying (Example 33); type: in vivo, Lycopersicon Esculentum Mill tomato; settings: 80 mg/L, sprayed twice; 2 weeks after infection
Protocol: (§1) Tomato plants, at the stage of the first pair of developed true leaves, were watered twice with a solution of substance 1-6 at a concentration of 80 mg/L, at a weekly interval. The control was tomato plants watered only with water. One week after the second treatment, a suspension of Pst bacteria at a concentration of 10^5 was spot-injected into the leaves using an insulin syringe (without a needle). The suspension was prepared from a two-day culture of Pst on solid medium. Protection against biotic stress was evaluated by the proliferation of bacteria in the leaves at the insertion site and the formation of a necrotic spot, compared to the control.
The procedure was followed as in Example 32, with the plants sprayed.

[3] = tested on: Pseudomonas syringae pv. Tomato (Pst); assay: Protection of tomato against Pseudomonas syringae pv. Tomato by watering (Example 32); type: in vivo; settings: 80 mg/L; watered twice; Pst 10^5; 2 weeks after infection
Protocol: as §1

[4] = tested on: powdery mildew fungus; assay: Direct effect on fungal infectivity (Example 23); type: in vivo; settings: tobacco plant, 5 days after infection with solution of fungus and test substance; control 100
Protocol: Proceeding as in Example 21, the test was performed on the powdery mildew fungus, which was then incubated on the medium.

[5] = tested on: Pseudomonas syringae pv. Tomato (Pst); settings: watered twice, Pst 10^5, 2 weeks after infection
Protocol: Tobacco plants at the stage of 3 developed leaves were watered twice, at a weekly interval, with a solution of test substances 1-11 at concentrations of 10, 40, 80 mg/L. The control was tobacco plants watered with water only. One week after the second treatment, a suspension of Pst bacteria at a concentration of 10^5 was spotted into the leaves using an insulin syringe (without a needle). The suspension was prepared from a two-day culture of Pst on solid medium. Protection against biotic stress was evaluated by the proliferation of bacteria in the leaves at the insertion site and the formation of a necrotic spot, compared to the control.
We proceeded as in Example 30, with the effectiveness of protection against biotic stress tested against bacterial cell concentrations raised to about 10^6.

[6] = tested on: Tobacco Mosaic Virus (TMV); assay: Protection of tobacco against TMV infection by spraying twice (Example 25); type: in vivo, Nicotiana tabacum cv. Xanthi; settings: sprayed twice, 7 days after infection
Source text: 5-chlorosalicylate of choline; 3. 3,5-dichlorosalicylate of choline; 4. 3-chlorosalicylate of sodium, 5. 3-chlorosalicylate of potassium, 6. 3-chlorosalicylate of calcium, 7.

[7] = tested on: Brome Mosaic Virus (BMV); assay: Protection of barley against Brome Mosaic Virus infection by watering (Examples 28 and 29); type: in vivo; settings: 80 mg/L, watered twice; 2 weeks after infection
[8] = tested on: Pseudomonas syringae pv. Tomato; assay: Direct effect on bacterial infectivity (Example 22); type: in vivo; settings: tobacco plant, 5 days after infection with solution of bacteria and test substance; control 100
Protocol: Proceeding as in example 21, Pseudomonas syringae pv. Tomato bacteria were tested and incubated in bacterial medium.

[9] = tested on: Tobacco Mosaic Virus (TMV); assay: Protection of tobacco against TMV infection by watering twice (Example 24); type: in vivo, Nicotiana tabacum cv. Xanthi; settings: watered twice, 7 days after infection
Protocol: Tobacco plants (Nicotiana tabacum) cv. […] 3,5-dichlorosalicylate of choline; 4. 3-chlorosalicylate of sodium, 5. 3-chlorosalicylate of potassium, 6. 3-chlorosalicylate of calcium, 7. 3-chlorosalicylate of magnesium at a concentration of 10 or 40 or 80 mg/L, at one-week intervals. The control was tobacco plants watered only with water. One week after the second treatment of the plants with the preparation, mechanical infection of the leaves with Tobacco Mosaic Virus (TMV) was carried out. This consisted of rubbing carborundum-sprinkled leaves several times with fingers soaked in a suspension of purified virus at a concentration of about 2 μg/ml. In order to evaluate the effectiveness of the tested substances in protection against biotic stresses, the TMV model and tobacco cv. Xanthi characterized by an interaction in the form of hypersensitivity phenomenon, i.e. the formation of easily quantifiable necrotic spots, were used.

[10] = tested on: powdery mildew fungus; assay: Protection of tomato against powdery mildew by spraying (Example 35); type: in vivo, Lycopersicon Esculentum Mill tomato; settings: 40 mg/l, sprayed twice; 2 weeks after pathogen inoculation
Protocol: […] The control was tomato plants watered only with water. […] The suspension was prepared from culture on solid medium. Protection against biotic stress was evaluated by comparing the area of leaves affected by infection.
Proceeded in the way as described in Example 34, with the difference that plants were sprayed and not watered.

[11] = tested on: tobacco mosaic virus (TMV); assay: Direct effect on TMV infectivity: virus incubated with substance, then Xanthi tobacco leaves infected (Example 21); type: in vivo; settings: TMV about 3 μg/ml mixed 1:1 with substance 80 mg/L, 30 min; 5 days after infection; control 100
Protocol: Sodium 3-chlorosalicylate; 5. Potassium 3-chlorosalicylate; 6. Calcium 3-chlorosalicylate; 7. Magnesium 3-chlorosalicylate (concentration 80 mg/L), in a 1:1 ratio and incubated for 30 min at room temperature. The control variant consisted of TMV incubated in water. All virus suspensions were used to mechanically infect Xanthi tobacco leaves, whose reaction to infection is manifested in easily quantifiable local necrotic spots (hypersensitivity, local infection).
After 5 days, the area of leaf covered by necrotic spots compared to total leaf area was calculated for plants of all variants of treatment.

Compound	% reduction in necrotic spots compared to control [1]	% reduction in necrotic spots compared to control [2]	% reduction in necrotic spots compared to control [3]	% of necrotic spots [4]	% reduction in necrotic spots compared to control ([5]; 10 mg/L)	% reduction in necrotic spots compared to control ([5]; 40 mg/L)	% reduction in necrotic spots compared to control ([5]; 80 mg/L)	% reduction in necrotic spots compared to control ([6]; 10 mg/L)	% reduction in necrotic spots compared to control ([6]; 40 mg/L)	% reduction in necrotic spots compared to control ([6]; 80 mg/L)	% reduction in necrotic spots compared to control [7]	% of necrotic spots [8]	% reduction in necrotic spots compared to control ([9]; 10 mg/L)	% reduction in necrotic spots compared to control ([9]; 40 mg/L)	% reduction in necrotic spots compared to control ([9]; 80 mg/L)	Reduction in necrotic spots (white patches) compared to control [10]	% of necrotic spots [11]
C[N+](C)(C)CCO.O=C([O-])c1cc(Cl)cc(Cl)c1O	85%	57%	59%	96%	27%	38%	84%	36%	47%	54%	77%	100%	36%	58%	96%	66%	95%
C[N+](C)(C)CCO.O=C([O-])c1cc(Cl)ccc1O [choline 5-chlorosalicylate]	90%	88%	87%	98%	28%	36%	80%	39%	61%	74%	36%	98%	34%	62%	98%	68%	100%
O=C([O-])c1cccc(Cl)c1O.[K+] [potassium 3-chlorosalicylate]	84%	84%	87%	98%				>10%	>10%	15%		98%	32%	65%	98%	54%	95%
O=C([O-])c1cccc(Cl)c1O.[Na+] [sodium 3-chlorosalicylate]	88%	51%	53%	96%				24%	29%	55%		95%	24%	63%	95%	55%	97%
calcium 3-chlorosalicylate	69%	82%	86%	97%				20%	30%	36%		97%	33%	65%	97%	62%	100%
